Laboratory results taken from PMC6225253, “Chemical Constituents and Antidepressant-Like Effects in Ovariectomized Mice of the Ethanol Extract of Alternanthera philoxeroides” (Molecules : A Journal of Synthetic Chemistry and Natural …, 2018).

Columns and labels:
Assay type in all cases: in vivo
CREB and BDNF mRNAs = experiment: CREB and BDNF mRNA expression in hippocampus and frontal cortex (semi-quantitative RT-PCR); details: hippocampus and frontal cortex of OVX mice; extract 250 and 500 mg/kg/day, E2 1 μg/kg/day
Excerpt: After completing the behavioral analysis, mice were decapitated under anesthesia. Mouse cyclic AMP response element binding protein (CREB), brain-derived neurotrophic factor (BDNF), and β-actin mRNAs expression in hippocampus and frontal cortex were semi-quantified by RT-PCR as described previously. Total RNA was extracted from the tissues with TRIzol® (Thermo Fisher Scientific Inc., CA, USA) according to the manufacturer’s instructions. First-strand cDNA was synthesized with oligo (dT) primers and SuperScript III reverse transcriptase (Thermo Fischer Scientific Inc., California, USA). PCR amplification was carried out using gene-specific PCR primer sets as follows: β-actin: 5′-AACGGTCTCACGTCAGTGTA-3′ (sense) and 5′-GTGACAGCATTGCTTCTGTG-3′ (antisense); BDNF: 5′-GACAAGGCAACTTGGCCTAC-3′ (sense) and 5′-CCTGTCACACACGCTCAGCTC-3′ (antisense); and CREB: 5′-GAGGCAGCTTGAACAACAAC-3′ (sense) and 5′-TACCCAGGGAGGAGCAATAC-3′ (antisense). […] The amplified products were visualized, photographed under ultraviolet and semi-quantified by GeneSnap software (GSL Biotech, Chicago, IL, USA) and ImageJ software (National Institutes of Health, Bethesda, MD, USA). The relative mRNA expression (BDNF/β-actin and CREB/β-actin) in each treatment were calculated by comparing with the sham group.

[1] = system: ovariectomized (OVX) mice; experiment: Serum 17β-estradiol level of OVX mice (electrochemiluminescence immunoassay); details: OVX mice + E2 1 μg/kg/day, oral, 8 weeks; mean ± SEM, n = 3–4
Procedure: (§1) The levels of serum 17β-estradiol were evaluated (after decapitation) by electrochemiluminescence immunoassay. […] The weight and volume of the uterus were determined as an index of estrogen receptors activation.
(§2) After a 3-day recovery period, the animals were divided into five groups: (1) sham, (2) ovariectomy (OVX), (3) ovariectomy + 1 μg/kg 17β-estradiol, (OVX + E2), (4) ovariectomy + 250 mg/kg of A. philoxeroides extract (OVX + AP250), and (5) ovariectomy + 500 mg/kg of A. philoxeroides extract (OVX + AP500). The sham and OVX control groups were orally administered distilled water 0.2 mL per mouse once daily for 8 weeks. 17β-Estradiol and A. philoxeroides extract were suspended in distilled water and orally administered 0.2 mL per mouse once daily for 8 weeks. To assess the effects of 17β-estradiol and A. philoxeroides extract in OVX mice, the drugs were administered 1 h before the behavioral tests. At the end of behavioral studies, the mice were anesthetized with pentobarbital sodium (Nembutal®) 60 mg/kg (i.p.). Thereafter, blood sera (1 mL) were collected by cardiac puncture and centrifuged (3000 rpm; 4 °C) for 15 min [53]. 17β-Estradiol and corticosterone levels were evaluated in the serum. […] Hippocampus and frontal cortex were collected for semi-quantitative reverse transcription-polymerase chain reaction (RT-PCR) assay. […]

[2] = system: HPA-axis (serum corticosterone); experiment: Serum corticosterone level of OVX mice (ELISA); details: extract 250 and 500 mg/kg/day, E2 1 µg/kg/day, p < 0.001 vs vehicle-treated OVX group
Procedure: The serum corticosterone was evaluated to clarify the feedback mechanism in the HPA-axis on the estrogen deprivation in the OVX mice. […] Serum corticosterone level was determined by corticosterone (CORT) ELISA kit (Assaypro LLC. St. Charles, MO, USA) and corticosterone was used as a standard, according to the previously described procedure. The serum of the sample 25 µL was added in 96-well microplates of ELISA kit and immediately added 25 µL of biotinylated corticosterone to each well. The 96-well microplates were gently mixed and incubated for 2 h at room temperature and then washed with 200 µL of wash buffer for five times and added 50 µL of streptavidin-peroxidase conjugate into each well before incubation for 30 minutes. Each well was washed with 200 µL of wash buffer for five times again and then added 50 µL of chromogen substrate and incubated for 20 minutes. The reaction was stopped by adding 50 µL of stop solution. The absorbance was immediately measured at 450 nm.

uterus of OVX mice = experiment: Uterine weight and volume of OVX mice
Procedure: as §1
After a 3-day recovery period, the animals were divided into five groups: (1) sham, (2) ovariectomy (OVX), (3) ovariectomy + 1 μg/kg 17β-estradiol, (OVX + E2), (4) ovariectomy + 250 mg/kg of A. philoxeroides extract (OVX + AP250), and (5) ovariectomy + 500 mg/kg of A. philoxeroides extract (OVX + AP500). The sham and OVX control groups were orally administered distilled water 0.2 mL per mouse once daily for 8 weeks. 17β-Estradiol and A. philoxeroides extract were suspended in distilled water and orally administered 0.2 mL per mouse once daily for 8 weeks. To assess the effects of 17β-estradiol and A. philoxeroides extract in OVX mice, the drugs were administered 1 h before the behavioral tests. At the end of behavioral studies, the mice were anesthetized with pentobarbital sodium (Nembutal®) 60 mg/kg (i.p.). Thereafter, blood sera (1 mL) were collected by cardiac puncture and centrifuged (3000 rpm; 4 °C) for 15 min [53]. 17β-Estradiol and corticosterone levels were evaluated in the serum. Uteri were removed, trimmed of connective tissue and fat for measuring and weighing. Hippocampus and frontal cortex were collected for semi-quantitative reverse transcription-polymerase chain reaction (RT-PCR) assay. Both serum and all tissues were collected rapidly and kept at −80 °C for all experiments.

[3] = system: ovariectomized (OVX) mice; experiment: Tail suspension test (TST) in ovariectomized mice; details: oral once daily 8 weeks, E2 1 μg/kg/day, extract 250 and 500 mg/kg/day, vs vehicle-treated OVX group
Procedure: (§3) The depressive-like symptoms of the OVX mice were evaluated using FST and TST (Figure 2A,B).
as §2
The tail suspension test was used to assess the antidepressant effects of A. philoxeroides extract. […] The animal behavior was video-recorded for 6 min. […]

[4] = system: ovariectomized (OVX) mice; experiment: Forced swimming test (FST) in ovariectomized mice; details: oral once daily 8 weeks, E2 1 μg/kg/day, extract 250 and 500 mg/kg/day, vs vehicle-treated OVX group
Procedure: as §3, §2
The procedure was adapted from Vogel et al.. […] During a 6 min period, the total immobility time was recorded for the last 4 min.

[5] = OVX mice + E2 1 μg/kg/day, oral, 8 weeks, mean ± SEM

## C[C@]12CC[C@@H]3c4ccc(O)cc4CC[C@H]3[C@@H]1CC[C@@H]2O [17β-estradiol]
CREB and BDNF mRNAs
  CREB and BDNF mRNA expression levels: reversible by 17β-estradiol treatment
[1]
  17β-estradiol (serum): 24.81 ± 1.11 pg/mL
[2]
  Serum corticosterone level (effect on HPA-axis): decreasing the serum corticosterone level
Uterus of OVX mice; [5]
  Uterine Volume: 2.305 ± 0.02 ** cm^3/kg
  Uterine Weight: 3.055 ± 0.04 g/kg
Uterus of OVX mice; OVX mice, extract 250 and 500 mg/kg/day, E2 1 µg/kg/day, vs vehicle-treated OVX
  Effect on uterus weight and volume: statistically significant effects on uterus weight and volume
[3]
  Immobility time in TST: significantly shorter immobility time
[4]
  Immobility time in FST: significantly shorter immobility time
